Results as given in patent US20030050306A1, “Novel heteroaryl derivatives, their preparation and use” (H. Lundbeck A/S, priority 1999, published 2003).
Where a name gives a salt, the structure may show the parent alone.

SMILES	melting point [°C]
Fc1ccc(SCCCN2CCN(c3cccc4ccsc34)CC2)c(Cl)c1 (as salt: hydrochloride) [Compound 2e, 1-Benzo[b]thiophen-7-yl-4-[3-(2-chloro-4-fluoro-phenylsulfanyl)-propyl]-piperazine]	216 to 219
Cc1cc(F)ccc1OCCCN1CCN(c2cccc3c2OCCO3)CC1 (as salt: oxalate) [Compound 1e, 1-(2,3-Dihydro-benzo[1,4]dioxin-5-yl)-4-[3-(4-fluoro-2-methyl-phenoxy)-propyl]-piperazine]	139 to 150
